Assay results as given in ChEMBL document CHEMBL1155497, “Double stranded DNA discrimination by di-pyrene modified gamma-cyclodextrin” (Bioorg Med Chem Lett, 2010).
Active and inactive are the calls of the source. The calls are words filed in the database; no cut-off is given here.

Experiments:
Format in all cases: nucleic-acid assay
[1] = tested on: Nucleic Acid; test: Binding affinity to double strand DNA assessed as increase in fluorescence intensity using 0.00075 uM of DNA at 0.3 uM by fluorescence spectroscopy technique
[2] = tested on: Nucleic Acid; test: Binding affinity to double strand DNA assessed as increase in fluorescence intensity using > 0.00075 uM of DNA at 0.3 uM by fluorescence spectroscopy technique
[3] = tested on: Nucleic Acid; test: Binding affinity to single strand DNA assessed as increase in fluorescence intensity at 0.3 uM by fluorescence spectroscopy technique
[4] = tested on: Nucleic Acid; test: Binding affinity to double strand DNA assessed as increase in fluorescence intensity by fluorescence spectroscopy technique
[5] = tested on: Nucleic Acid; test: Binding affinity to single strand DNA assessed as increase in fluorescence intensity using > 0.00075 uM of DNA by fluorescence spectroscopy technique
[6] = tested on: Nucleic Acid; test: Binding affinity to single strand DNA assessed as increase in fluorescence intensity using 0.00075 uM of DNA by fluorescence spectroscopy technique
[7] = tested on: Nucleic Acid; test: Binding affinity to single strand DNA assessed as increase in fluorescence intensity at 0.6 uM by fluorescence spectroscopy technique
[8] = tested on: Nucleic Acid; test: Binding affinity to double strand DNA assessed as increase in fluorescence intensity at 0.6 uM by fluorescence spectroscopy technique
[9] = tested on: Nucleic Acid; test: Binding affinity to double strand DNA assessed as increase in fluorescence intensity at 0.1 uM by fluorescence spectroscopy technique
[10] = tested on: Nucleic Acid; test: Binding affinity to single strand DNA assessed as increase in fluorescence intensity at 0.1 uM by fluorescence spectroscopy technique

O=C(NCCOCCOCCOCc1ccc2ccc3cccc4ccc1c2c34)SC[C@H]1O[C@@H]2O[C@H]3[C@H](O)[C@@H](O)[C@@H](O[C@H]4[C@H](O)[C@@H](O)[C@@H](O[C@@H]5[C@@H](CO)C[C@H](O[C@H]6[C@H](O)[C@@H](O)[C@@H](O[C@H]7[C@H](O)[C@@H](O)[C@@H](O[C@H]8[C@H](O)[C@@H](O)[C@@H](O[C@H]9[C@H](O)[C@@H](O)[C@@H](O[C@H]1[C@H](O)[C@H]2O)O[C@@H]9CO)O[C@@H]8CO)O[C@@H]7CO)O[C@@H]6CSC(=O)NCCOCCOCCOCc1ccc2ccc6cccc7ccc1c2c67)[C@H](O)[C@H]5O)O[C@@H]4CO)O[C@@H]3CO
Activity [1]: Active | Activity [2]: inactive | Activity [3]: inactive

CCCN(CCCN(C)C)C1=CC(Cc2sc3ccccc3[n+]2C)c2ccccc2N1c1ccccc1 (stereo not given)
Activity [4]: Active | Activity [5]: Active | Activity [6]: Active

O=C(CSC[C@H]1O[C@@H]2O[C@@H]3[C@@H](CO)C[C@H](O[C@H]4[C@H](O)[C@@H](O)[C@@H](O[C@H]5[C@H](O)[C@@H](O)[C@@H](O[C@H]6[C@H](O)[C@@H](O)[C@@H](O[C@H]7[C@H](O)[C@@H](O)[C@@H](O[C@H]8[C@H](O)[C@@H](O)[C@@H](O[C@H]9[C@H](O)[C@@H](O)[C@@H](O[C@H]1[C@H](O)[C@H]2O)O[C@@H]9CO)O[C@@H]8CSCC(=O)NCCOCCOCCOCc1ccc2ccc8cccc9ccc1c2c89)O[C@@H]7CO)O[C@@H]6CO)O[C@@H]5CO)O[C@@H]4CO)[C@H](O)[C@H]3O)NCCOCCOCCOCc1ccc2ccc3cccc4ccc1c2c34
Activity [7]: inactive | Activity [8]: inactive | Activity [9]: inactive | Activity [10]: inactive
